Laboratory results taken from ChEMBL document CHEMBL1201862, “PubChem BioAssay data set” (2004).
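Following 48 hours of exposure in 96-well plates, responses at five concentrations were used to interpolate endpoints linearly. GI50: concentration for 50% inhibition of growth.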 Active and inactive are the calls of the source. Cut-off read from the data, not from the text of the source: active = GI50 up to about 1.1 µM and inactive = higher.

Tests used:
Test in all cases: DTP human tumour cell line panel, 48 h
[1] = tested on: A498
[2] = tested on: COLO 205
[3] = tested on: DU-145
[4] = tested on: HCT-116
[5] = tested on: HCT-15
[6] = tested on: HL-60
[7] = tested on: MCF7
[8] = tested on: MDA-MB-231
[9] = tested on: MDA-MB-435
[10] = tested on: MDA-N
[11] = tested on: NCI-H522
[12] = tested on: NCI/ADR-RES
[13] = tested on: OVCAR-4
[14] = tested on: OVCAR-8
[15] = tested on: RPMI-8226
[16] = tested on: SF-268
[17] = tested on: SK-OV-3
[18] = tested on: SNB-19
[19] = tested on: SW-620
[20] = tested on: UO-31

| Structure (SMILES) | GI50 [1] | GI50 [2] | GI50 [3] | GI50 [4] | GI50 [5] [µM] | GI50 [6] | GI50 [7] | GI50 [8] | GI50 [9] | GI50 [10] | GI50 [11] | GI50 [12] | GI50 [13] | GI50 [14] | GI50 [15] | GI50 [16] | GI50 [17] | GI50 [18] | GI50 [19] | GI50 [20] |
| --- | --- | --- | --- | --- | --- | --- | --- | --- | --- | --- | --- | --- | --- | --- | --- | --- | --- | --- | --- | --- |
| CN(CCC(=O)O)S(=O)(=O)c1ccccc1 | > 100 µM (inactive) | > 100 µM (inactive) | > 100 µM (inactive) | > 100 µM (inactive) | > 100 | > 100 µM (inactive) | > 100 µM (inactive) | > 100 µM (inactive) | > 100 µM (inactive) | > 100 µM (inactive) | > 100 µM (inactive) | > 100 µM (inactive) | > 100 µM (inactive) | > 100 µM (inactive) | > 100 µM (inactive) | > 100 µM (inactive) | > 100 µM (inactive) | > 100 µM (inactive) | > 100 µM (inactive) | > 100 µM (inactive) |
| CCCCCCCCCCCCCCCCCCNc1ccn(C2OC(COP(=O)(O)OCC3OC(n4cc(F)c(=O)[nH]c4=O)CC3O)C(O)C2O)c(=O)n1 (configuration not stated) | 33.3 µM (inactive) | 16.1 µM (inactive) | 2.43 µM (inactive) | 2.98 µM (inactive) | 16.3 | 0.678 µM (active) | 0.274 µM (active) | > 100 µM (inactive) | 37.9 µM (inactive) | 46.6 µM (inactive) | 4.83 µM (inactive) | 1.33 µM (inactive) | 60 µM (inactive) | 1.36 µM (inactive) | 1.44 µM (inactive) | 0.0914 µM (active) | 27.5 µM (inactive) | 20.2 µM (inactive) | 42.8 µM (inactive) | 0.498 µM (active) |
| NC1C2C(CC(=O)O)OCC=C3CN4CCC1(C(=O)C(=O)O)C4CC32 (configuration not stated) | > 100 µM (inactive) | > 100 µM (inactive) | > 100 µM (inactive) | > 100 µM (inactive) | > 100 | > 100 µM (inactive) | > 100 µM (inactive) | > 100 µM (inactive) | > 100 µM (inactive) | > 100 µM (inactive) | > 100 µM (inactive) | > 100 µM (inactive) | > 100 µM (inactive) | > 100 µM (inactive) | – | > 100 µM (inactive) | > 100 µM (inactive) | > 100 µM (inactive) | > 100 µM (inactive) | > 100 µM (inactive) |
| O=c1c2ccccc2[nH]n1Cc1ccccc1 | > 100 µM (inactive) | > 100 µM (inactive) | > 100 µM (inactive) | > 100 µM (inactive) | > 100 | > 100 µM (inactive) | > 100 µM (inactive) | > 100 µM (inactive) | > 100 µM (inactive) | > 100 µM (inactive) | > 100 µM (inactive) | > 100 µM (inactive) | > 100 µM (inactive) | > 100 µM (inactive) | > 100 µM (inactive) | > 100 µM (inactive) | > 100 µM (inactive) | > 100 µM (inactive) | > 100 µM (inactive) | > 100 µM (inactive) |
| O=C(OCc1ccccc1)N1CCNCCNCC1 | > 100 µM (inactive) | > 100 µM (inactive) | > 100 µM (inactive) | > 100 µM (inactive) | > 100 | > 100 µM (inactive) | > 100 µM (inactive) | > 100 µM (inactive) | > 100 µM (inactive) | > 100 µM (inactive) | > 100 µM (inactive) | > 100 µM (inactive) | > 100 µM (inactive) | > 100 µM (inactive) | > 100 µM (inactive) | > 100 µM (inactive) | – | > 100 µM (inactive) | > 100 µM (inactive) | > 100 µM (inactive) |
| NC(=S)N/N=C1/CCCC2CCCC[C@@H]12 (some centres not stated) | > 100 µM (inactive) | > 100 µM (inactive) | > 100 µM (inactive) | – | > 100 | > 100 µM (inactive) | > 100 µM (inactive) | > 100 µM (inactive) | > 100 µM (inactive) | > 100 µM (inactive) | 80.4 µM (inactive) | > 100 µM (inactive) | > 100 µM (inactive) | > 100 µM (inactive) | > 100 µM (inactive) | > 100 µM (inactive) | > 100 µM (inactive) | > 100 µM (inactive) | > 100 µM (inactive) | > 100 µM (inactive) |
| Oc1ccc(Cl)cc1C1=NC(NCNC2=NC(c3ccccc3)CC(c3cc(Cl)ccc3O)=N2)=NC(c2ccccc2)C1 (configuration not stated) | > 100 µM (inactive) | > 100 µM (inactive) | 44.2 µM (inactive) | 56 µM (inactive) | 43.4 | > 100 µM (inactive) | 20.9 µM (inactive) | > 100 µM (inactive) | 47.9 µM (inactive) | 79.1 µM (inactive) | – | 82.4 µM (inactive) | 64.1 µM (inactive) | > 100 µM (inactive) | 63.4 µM (inactive) | 97.9 µM (inactive) | > 100 µM (inactive) | > 100 µM (inactive) | > 100 µM (inactive) | 54.2 µM (inactive) |
| COc1cc(O)c2c(=O)cc(C3(OC(C)=O)C=CC(OC4OC(CO)C(O)C(O)C4O)C=C3)oc2c1 (configuration not stated) | > 100 µM (inactive) | > 100 µM (inactive) | > 100 µM (inactive) | > 100 µM (inactive) | > 100 | > 100 µM (inactive) | > 100 µM (inactive) | > 100 µM (inactive) | > 100 µM (inactive) | > 100 µM (inactive) | > 100 µM (inactive) | > 100 µM (inactive) | > 100 µM (inactive) | > 100 µM (inactive) | > 100 µM (inactive) | – | > 100 µM (inactive) | > 100 µM (inactive) | > 100 µM (inactive) | > 100 µM (inactive) |
| CCOC1CC(=O)c2c(Br)sc(Br)c21 (configuration not stated) | 32.4 µM (inactive) | 19.7 µM (inactive) | 18 µM (inactive) | 21.2 µM (inactive) | 18 | 20.4 µM (inactive) | 21.2 µM (inactive) | 19.5 µM (inactive) | 17.5 µM (inactive) | 22.3 µM (inactive) | 28.5 µM (inactive) | 37.6 µM (inactive) | – | 17.5 µM (inactive) | 17.9 µM (inactive) | 28.6 µM (inactive) | 16.5 µM (inactive) | 23.8 µM (inactive) | 20 µM (inactive) | 18.2 µM (inactive) |
| O=C(NCCN1CCCCC1)c1ccc(Br)cc1 | 42.8 µM (inactive) | > 100 µM (inactive) | > 100 µM (inactive) | > 100 µM (inactive) | > 100 | 2.81 µM (inactive) | > 100 µM (inactive) | > 100 µM (inactive) | > 100 µM (inactive) | > 100 µM (inactive) | > 100 µM (inactive) | > 100 µM (inactive) | > 100 µM (inactive) | > 100 µM (inactive) | > 100 µM (inactive) | > 100 µM (inactive) | > 100 µM (inactive) | > 100 µM (inactive) | > 100 µM (inactive) | > 100 µM (inactive) |
| CCCCC(C(=O)NCCNC(=O)CCC(=O)N(C)O)C(=O)NCCNC(=O)CCC(=O)N(C)O | > 100 µM (inactive) | > 100 µM (inactive) | > 100 µM (inactive) | > 100 µM (inactive) | > 100 | > 100 µM (inactive) | > 100 µM (inactive) | > 100 µM (inactive) | > 100 µM (inactive) | > 100 µM (inactive) | > 100 µM (inactive) | > 100 µM (inactive) | > 100 µM (inactive) | > 100 µM (inactive) | > 100 µM (inactive) | – | > 100 µM (inactive) | > 100 µM (inactive) | > 100 µM (inactive) | > 100 µM (inactive) |
| C=C(C)CC1(O)C(=O)C(OCC)=C1OCC (configuration not stated) | > 100 µM (inactive) | > 100 µM (inactive) | > 100 µM (inactive) | > 100 µM (inactive) | > 100 | > 100 µM (inactive) | > 100 µM (inactive) | > 100 µM (inactive) | > 100 µM (inactive) | > 100 µM (inactive) | > 100 µM (inactive) | > 100 µM (inactive) | > 100 µM (inactive) | > 100 µM (inactive) | – | > 100 µM (inactive) | > 100 µM (inactive) | > 100 µM (inactive) | > 100 µM (inactive) | > 100 µM (inactive) |
| CN(C)c1ccc(/C=C/C(=O)N[C@@H]2C(=O)N3[C@@H]2SC(C)(C)[C@@H]3C(=O)O)cc1 | > 100 µM (inactive) | > 100 µM (inactive) | > 100 µM (inactive) | 58.9 µM (inactive) | > 100 | > 100 µM (inactive) | > 100 µM (inactive) | > 100 µM (inactive) | > 100 µM (inactive) | > 100 µM (inactive) | > 100 µM (inactive) | > 100 µM (inactive) | > 100 µM (inactive) | > 100 µM (inactive) | > 100 µM (inactive) | > 100 µM (inactive) | – | > 100 µM (inactive) | > 100 µM (inactive) | > 100 µM (inactive) |
| COc1ccc(CC2CCc3nc(N)nc(N)c3C2)cc1OC (configuration not stated) | 17.3 µM (inactive) | 2.94 µM (inactive) | 0.681 µM (active) | 0.0349 µM (active) | 0.104 | 14.8 µM (inactive) | 1.15 µM (inactive) | 12.9 µM (inactive) | 1.41 µM (inactive) | 0.0507 µM (active) | 0.489 µM (active) | 1.29 µM (inactive) | > 43.3 µM (inactive) | 14.6 µM (inactive) | 13.1 µM (inactive) | 0.173 µM (active) | – | – | 6.03 µM (inactive) | 13.8 µM (inactive) |
| Nc1ccnc2c1ncn2[C@H]1C[C@H](O)[C@@H](CO)O1 | > 100 µM (inactive) | > 100 µM (inactive) | > 100 µM (inactive) | > 100 µM (inactive) | > 100 | > 100 µM (inactive) | > 100 µM (inactive) | > 100 µM (inactive) | > 100 µM (inactive) | > 100 µM (inactive) | > 100 µM (inactive) | > 100 µM (inactive) | > 100 µM (inactive) | > 100 µM (inactive) | – | > 100 µM (inactive) | – | > 100 µM (inactive) | > 100 µM (inactive) | > 100 µM (inactive) |
